The conditions of series [1]: cited from earlier work.
For series [2] the following is noted: Thorpe et al., Cancer Res. 47:5924-5931, 1987; cited from earlier work.
Series [3] can be described thus: Glutathione-induced TNB release from 791/iminothiolane/TNB (disulfide stability). The following applies: for Reaction rate, TNB, k × 10^5 (initial rate of TNB release from 791/linker/TNB): ca. 10 μM protein-S-S-TNB, 200 μM glutathione, PBS, 0.5 mM EDTA, pH 7.25, 25° C.; for Increase in Disulfide Stability Relative to: 2IT / Increase in Disulfide Stability Relative to: SPDP: ratio of TNB release rate constants; for Increase in Disulfide Stability Relative to: SPDP: vs 791/SPDP/TNB. It is filed as physicochemical. On the procedure:
d. The initial rate of TNB release from 791/iminothiolane/TNB induced by glutathione. Samples contained ca. 10 μM of protein-S-S-TNB and 200 μM of glutathione in PBS containing 0.5 mM EDTA, pH 7.25, and were monitored at 412nm. FIG. 1 presents the results graphically.
The relative increase in disulfide stability was also compared to 791/SPDP/TNB, and was determined as for 2IT.
791/SPDP/TNB was prepared by derivatizing 791 mAb with SPDP following conventional procedures and conditions, removing any byproducts by gel filtration, releasing the PDP group with 1 mM DTT, and then reacting the liberated sulfhydryl with DTNB. Following gel filtration, the rate of TNB release was measured as in Example 19d above.

A short description of series [4]: Rate of reaction of the 2-iminothiolanes with glycine, coupled with DTNB, 412nm. The following applies: 160 mM glycine, 0.5 mM DTNB, PBS pH 7.2; 25° C. It is filed as physicochemical. On the procedure: b. The rate of reaction of the 2-iminothiolanes with 160 mM glycine in PBS (pH 7.2), monitored by coupling the reaction with 0.5 mM DTNB and following the change in absorbance at 412nm.

A short description of series [5]: Hydrolysis of the 2-iminothiolane rings in PBS (pH 7.2), monitored at 248nm. It is filed as physicochemical. The conditions noted are these: 25° C. The source says: a. The rate of hydrolysis of the 2-iminothiolane rings in PBS (pH 7.2), monitored at 248nm.
Series [6] deals with 791 mAb. Kind of series: Rate of reaction of the 2-iminothiolanes with 791 mAb, coupled with DTNB, 412nm. The conditions noted are these: 0.5 mM 2-iminothiolane, 20 μM 791 mAb, 2.5 mM DTNB, pH 7.5; 25° C. The method, then:
c. The rate of reaction of the 2-iminothiolanes (0.5 mM) with 791 mAb (20 μM), as monitored by coupling the reaction with 2.5 mM DTNB in 0.1 M NaPO4, 0.1 M NaCl, pH 7.5, and monitoring the change in absorbance at 412nm.

Where a name gives a salt, the structure may show the parent alone. Marks after values point to notes of the source that are not given here.

`CC(SS(=O)(=O)O)c1ccc(C(=O)ON2C(=O)CCC2=O)cc1` (stereo not drawn) [SMBT, sodium S-4-succinimidyloxycarbonyl-α-methyl benzyl thiosulfate]: the “solubility in water, in words (background)” value in series [1] is listed as “low solubility in water”. The “stability of disulfide bond in vivo, in words” value (shortened to “stability of disulfide bond”) in series [2] was “appear to have more stable disulfide linkages in vivo”.

Regarding `Cl.N=C1CCCS1` [Compound 2IT, 2-iminothiolane hydrochloride, reference compound], the “rate constant for unsubstituted 2-iminothiolane” value in series [3] (TNB release from 791/linker/TNB by glutathione) is recorded as 9.42×10^-3. In series [3], the “Reaction rate, TNB, k × 10^5 (initial rate of TNB release from 791/linker/TNB)” value is reported as 942.0 s^-1 (k × 10^5); the “Increase in Disulfide Stability Relative to: 2IT” value turned out to be 1.0; the “Increase in Disulfide Stability Relative to: SPDP” value was determined as 0.3. Also, the “Reaction rate, Glycine, k × 10^3” value in series [4] is 5.3 s^-1 (k × 10^3). In series [5], the “Reaction rate, Hydrolysis” value is 10.2 %/hr. Moreover, the “Reaction rate, 791, k × 10^5” value in series [6] is recorded as 5.0 s^-1 (k × 10^5). The “stability of disulfide bond” value in series [2] was “unstable in vivo”.

For the compound `CC1(C)CCC(=N)S1.Cl` [dimethyl-2IT, 5,5-Dimethyl-2-iminothiolane hydrochloride], in series [3], the “Reaction rate, TNB, k × 10^5 (initial rate of TNB release from 791/linker/TNB)” value is recorded as 0.13 s^-1 (k × 10^5); the “Increase in Disulfide Stability Relative to: 2IT” value is recorded as 7246.0; the “Increase in Disulfide Stability Relative to: SPDP” value amounted to 2046.0. Further, the “Reaction rate, Glycine, k × 10^3” value in series [4] is listed as 3.5 s^-1 (k × 10^3). In addition, in series [5], the “Reaction rate, Hydrolysis” value turned out to be 6.9 %/hr. For the same compound, the “Reaction rate, 791, k × 10^5” value in series [6] is listed as 4.6 s^-1 (k × 10^5).

Take `Cl.N=C1CCC(c2ccccc2)S1` (stereo not drawn) [phenyl-2IT, 5-Phenyl-2-iminothiolane hydrochloride]: in series [3], the “Reaction rate, TNB, k × 10^5 (initial rate of TNB release from 791/linker/TNB)” value was 45.8 s^-1 (k × 10^5); the “Increase in Disulfide Stability Relative to: 2IT” value was found to be 20.6; the “Increase in Disulfide Stability Relative to: SPDP” value is recorded as 5.8. Also, the “Reaction rate, Glycine, k × 10^3” value in series [4] is 5.2 s^-1 (k × 10^3). Also, the “Reaction rate, Hydrolysis” value in series [5] was 1.5 %/hr. Further, the “Reaction rate, 791, k × 10^5” value in series [6] is reported as 8.8 s^-1 (k × 10^5).

`CC(C)(C)C1CCC(=N)S1.Cl` (stereo not drawn) [t-butyl-2IT, 5-t-Butyl-2-iminothiolane hydrochloride]: in series [3], the “Reaction rate, TNB, k × 10^5 (initial rate of TNB release from 791/linker/TNB)” value is recorded as 16.4 s^-1 (k × 10^5); the “Increase in Disulfide Stability Relative to: 2IT” value was 57.4; the “Increase in Disulfide Stability Relative to: SPDP” value came out at 16.2. In addition, the “Reaction rate, Glycine, k × 10^3” value in series [4] is reported as 4.4 s^-1 (k × 10^3). Moreover, the “Reaction rate, Hydrolysis” value in series [5] was 6.1 %/hr. Further, the “Reaction rate, 791, k × 10^5” value in series [6] is 7.4 s^-1 (k × 10^5).

On to `O=C(CCSSc1ccccn1)ON1C(=O)CCC1=O` [SPDP, N-succinimidyl-3-(2-pyridyldithio)propionate, reference compound], for which, in series [3], the “Increase in Disulfide Stability Relative to: 2IT” value is on record as 3.6 and the “Increase in Disulfide Stability Relative to: SPDP” value amounted to 1.0. The “stability of disulfide bond” value in series [2] is reported as “unstable in vivo”.

Take `CC1CCC(=N)S1.Cl` (stereo not drawn) [methyl-2IT, 5-Methyl-2-iminothiolane hydrochloride]: in series [3], the “Reaction rate, TNB, k × 10^5 (initial rate of TNB release from 791/linker/TNB)” value is recorded as 75.3 s^-1 (k × 10^5); the “Increase in Disulfide Stability Relative to: 2IT” value came to 12.5; the “Increase in Disulfide Stability Relative to: SPDP” value is 3.5. Moreover, the “Reaction rate, Glycine, k × 10^3” value in series [4] is listed as 4.8 s^-1 (k × 10^3). The “Reaction rate, Hydrolysis” value in series [5] came to 5.4 %/hr. The “Reaction rate, 791, k × 10^5” value in series [6] is 4.0 s^-1 (k × 10^5).

In the case of `CC(SSc1ccccn1)c1ccc(C(=O)ON2C(=O)CCC2=O)cc1` (stereo not drawn) [SMPT, 4-succinimidyloxycarbonyl-α-methyl-α-(2-pyridyldithio)-toluene], in series [1], the “solubility in water, in words (background)” value was “low solubility in water”. In series [2], the “stability of disulfide bond” value was “appear to have more stable disulfide linkages in vivo”.

In the case of `Cl.N=C1CCC2(CCCCC2)S1` [spiro-2IT, 2-Imino-1-thiaspiro[4.5]decane hydrochloride], in series [3], the “Reaction rate, TNB, k × 10^5 (initial rate of TNB release from 791/linker/TNB)” value is 0.11 s^-1 (k × 10^5); the “Increase in Disulfide Stability Relative to: 2IT” value is reported as 8564.0; the “Increase in Disulfide Stability Relative to: SPDP” value was 2418.0. The “Reaction rate, Glycine, k × 10^3” value in series [4] is reported as 3.0 s^-1 (k × 10^3). In addition, in series [5], the “Reaction rate, Hydrolysis” value worked out at 5.6 %/hr. In addition, in series [6], the “Reaction rate, 791, k × 10^5” value is listed as 4.6 s^-1 (k × 10^5).

Regarding `N=C1CC2CCCCC2S1` (stereo not drawn) [ring-2IT, hydrochloride], in series [3], the “Reaction rate, TNB, k × 10^5 (initial rate of TNB release from 791/linker/TNB)” value is on record as 82.1 s^-1 (k × 10^5); the “Increase in Disulfide Stability Relative to: 2IT” value was 11.5; the “Increase in Disulfide Stability Relative to: SPDP” value was determined as 3.2. In addition, the “Reaction rate, Glycine, k × 10^3” value in series [4] was 3.4 s^-1 (k × 10^3). In addition, the “Reaction rate, Hydrolysis” value in series [5] is reported as 13.4 %/hr. Further, the “Reaction rate, 791, k × 10^5” value in series [6] is recorded as 5.6 s^-1 (k × 10^5).

Values taken from patent publication US5093475A (priority 1989, dated 1992).
